Paper PMC12048435, “Multifunctional acyltransferases involved in the synthesis of triacylglycerol, fatty acid phytyl esters and plastoquinol esters in cyanobacteria” (Planta, 2025)

Experiments:
slr2103 [1] = target: T1, slr2103 (Synechocystis sp. PCC 6803, UniProt P73931); assay: feeding of E. coli cells expressing slr2103, acyl-DPQ product by LC-MS/MS; format: cell-based; settings: supplied as decylplastoquinone (1500 nmol in 5 ml), reduced in cells; acyl donor from E. coli; 30 C, 3 h
T1 construct: cloned in pQE-80L, expressed in E. coli; intact cells fed with substrate
T1 sequence (P73931 1-294): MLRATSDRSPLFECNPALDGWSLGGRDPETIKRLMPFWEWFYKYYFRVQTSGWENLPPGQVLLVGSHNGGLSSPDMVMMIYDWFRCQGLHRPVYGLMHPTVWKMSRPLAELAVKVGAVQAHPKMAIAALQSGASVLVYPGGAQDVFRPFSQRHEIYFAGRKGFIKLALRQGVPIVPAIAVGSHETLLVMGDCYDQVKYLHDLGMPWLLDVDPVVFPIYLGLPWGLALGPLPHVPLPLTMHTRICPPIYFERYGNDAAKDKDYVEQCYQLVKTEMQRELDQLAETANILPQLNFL

slr2103 [2] = target: T1, slr2103; assay: feeding of E. coli cells expressing slr2103, TAG product by MS; format: cell-based; settings: 1500 nmol substrate in 5 ml; acyl donor from E. coli; 30 C, 3 h
A0918 = target: T2, A0918 (Picosynechococcus sp. PCC 7002, UniProt B1XIY0); assay: in vitro acyltransferase assay with E. coli microsomal membranes, TAG product by MS; format: biochemical; settings: 50 uM palmitoyl-CoA, 200 uM substrate, 20 mM MgCl2, 0.1% CHAPS, pH 7.4, 37 C, 20 min
T2 construct: gene plsC; amplified from genomic DNA, cloned in pQE-80L, expressed in E. coli; microsomal membrane fraction
T2 sequence (B1XIY0 1-291): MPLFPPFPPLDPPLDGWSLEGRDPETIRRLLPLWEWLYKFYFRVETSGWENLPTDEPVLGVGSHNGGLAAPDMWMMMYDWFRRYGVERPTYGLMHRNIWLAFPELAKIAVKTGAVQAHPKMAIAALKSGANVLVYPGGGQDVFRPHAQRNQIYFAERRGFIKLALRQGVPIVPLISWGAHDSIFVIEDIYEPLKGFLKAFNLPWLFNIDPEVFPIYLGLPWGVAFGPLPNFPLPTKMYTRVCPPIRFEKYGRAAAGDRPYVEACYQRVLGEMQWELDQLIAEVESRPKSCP

Row | Structure (SMILES) | feeding of E. coli cells expressing slr2103, acyl-DPQ product by LC-MS/MS (slr2103 [1]) | feeding of E. coli cells expressing slr2103, TAG product by MS (slr2103 [2]) | in vitro acyltransferase assay with E. coli microsomal membranes, TAG product by (A0918)
1 | CCCCCCCCCCc1cc(O)c(C)c(C)c1O [DPQ, decylplastoquinol] | slr2103 is capable of acylating one of the quinol hydroxyl groups of DPQ | – | –
2 | CCCCCCCC(=O)OCC(CO)OC(=O)CCCCCCC (stereo not drawn) [dioctanoin] | – | Accumulation of TAG after supplementation of E. coli cells expressing slr2103 with dioctanoin | confirming that A0918 harbors acyltransferase activity for the synthesis of TAG and FAPE
